Experimental data as given in PMC5750218, “Protein-inspired antibiotics active against vancomycin- and daptomycin-resistant bacteria” (Nature Communications, 2018).
Converted amounts (≈) assume the structure as drawn. “And” between values parts separate entries of the source, which are not always exact repeats. Equal values may be shown once. Positions of bridges follow the written chain, without caps; N, C: chain ends. Residues, ends and D or L forms follow the SMILES beside them. Chains are numbered I, II in the order given. *: point of attachment. Myristoyl = CCCCCCCCCCCCCC(=O)*

Columns and labels:
Assay in all cases: microbe, parasite or virus in culture
[1] = system: Vancomycin-resistant (VanA) Enterococcus faecium ATCC 51559
Description: (§1) Antimicrobial activity of compounds was tested against a number of bacterial strains by broth microdilution (BMD) assay with MIC determination, including S. aureus (MSSA ATCC® 29213™, MRSA ATCC® 43300™, VISA NARSA NRS1, VISA NARSA NRS4), Streptococcus pneumoniae (MDR ATCC® 700677™) and Enterococcus faecium (MDR VanA ATCC® 51559™). ATCC strains were sourced from the American Type Culture Collection and NRS strains from NARSA (Network on Antimicrobial Resistance in S. aureus) via BEI Resources (www.beiresources.org). All compounds were prepared to 160 µg mL^−1 solution in water from a stock solution of 1 mM concentration.
(§2) The compounds, along with standard antibiotics were serially diluted twofold across the wells of 96-well non-binding surface (NBS) polystyrene plates (Corning 3641). […] Standards ranged from 64 to 0.03 µg mL^−1 and compounds from 8 to 0.003 µg mL^−1 with final assay volumes of 100 µL per well. Gram-positive bacteria were cultured in Mueller Hinton broth (MHB) (Bactolaboratories, Cat. no. 211443) at 37 °C overnight. A sample of each culture was then diluted 40-fold in fresh MHB and incubated at 37 °C for 2–3 h. […] All the plates were covered and incubated at 37 °C for 24 h. MICs were the lowest concentration showing no visible growth.

[2] = system: Methicillin-resistant S. aureus ATCC 43300
Description: as §1
as §2, with “The compounds, along with standard antibiotics were serially diluted twofold across the wells of 96-well non-binding surface (NBS) polystyrene plates (Corning 3641).” left out

[3] = system: Multi-drug-resistant S. pneumoniae ATCC 700677
Description: as §1, §2

[4] = system: Vancomycin-intermediate S. aureus NRS1
Description: as §1, §2

Row | Molecule | MIC VRE ([1]; ATCC 51559) [µg/mL] | MIC MRSA ([2]; ATCC 43300, 24 h) [µg/mL] | MIC MDR S.P. ([3]; ATCC 700677) [µg/mL] | MIC VISA ([4]; Vancomycin-intermediate NRS1) [µg/mL] | MIC VRE ([1]; E. faecium MDR VanA ATCC 51559, substance alone) [µg/mL] | MIC MDR S.P. ([3]; S. pneumoniae ATCC 700677) | MIC VISA ([4]; S. aureus NRS1) | MIC MRSA ([2]; S. aureus ATCC 43300, NBS plates, MHB, 24 h, substance alone)
1 | CCCCCCCCCCCCCC(=O)NCC(=O)N[C@@H](CO)C(=O)N[C@@H](CO)C(=O)N[C@@H](CCCCN)C(=O)N[C@@H](CO)C(=O)N1CCC[C@H]1C(=O)N[C@@H](CO)C(=O)N[C@@H](CCCCN)C(=O)N[C@@H](CCCCN)C(=O)N[C@@H](CCCCN)C(=O)N[C@@H](CCCCN)C(=O)N[C@@H](CCCCN)C(=O)N[C@@H](CCCCN)C(=O)N1CCC[C@H]1C(=O)NCC(=O)N[C@@H](CC(=O)O)C(=O)N[C@@H](CS)C(N)=O [Compound 8a] (Myristoyl-GSSKSPSKKKKKKPGDC-NH2) | >8 | >8 |  |  |  |  |  | 
2 | CCCCCCCCCCCCCC(=O)NCC(=O)N[C@@H](CO)C(=O)N[C@@H](CO)C(=O)N[C@@H](CCCCN)C(=O)N[C@@H](CO)C(=O)N1CCC[C@H]1C(=O)N[C@@H](CO)C(=O)N[C@@H](CCCCN)C(=O)N[C@@H](CCCCN)C(=O)N[C@@H](CCCCN)C(=O)N1CCC[C@H]1C(=O)N[C@@H](CS)C(N)=O [Compound 12a] (Myristoyl-GSSKSPSKKKPC-NH2) | >8 | >8 |  |  |  |  |  | 
3 | CCCCCCCCCCCCCC(=O)NCC(=O)N[C@@H](CO)C(=O)N[C@@H](CCCCN)C(=O)N[C@@H](CCCCN)C(=O)N[C@@H](CCCCN)C(=O)N[C@@H](CS)C(N)=O [Compound 13a, Myristoyl-GSKKKC-NH 2] (Myristoyl-GSKKKC-NH2) | >8 | >8 |  |  |  |  |  | 
4 | CCCCCCCCCCCCCC(=O)N[C@@H](CCCCN)C(=O)N[C@@H](CCCCN)C(=O)N[C@@H](CCCCN)C(=O)N[C@@H](CSSC[C@H](NC(=O)[C@H](CCCCN)NC(=O)[C@H](CCCCN)NC(=O)[C@H](CCCCN)NC(=O)CCCCCCCCCCCCC)C(=O)O)C(=O)O [Compound 15a, Myristoyl-KKKC-OH – disulphide dimer] (I: Myristoyl-KKKC-OH / II: Myristoyl-KKKC-OH; disulfide I:4-II:4) | >8 | >8 |  |  |  |  |  | 
5 | CNC(=O)[C@H](CCCCNC(=O)[C@H]1NC(=O)[C@H]2NC(=O)[C@H](NC(=O)[C@@H]3NC(=O)[C@H](CC(N)=O)NC(=O)[C@H](NC(=O)[C@@H](CC(C)C)NC)[C@H](O)c4ccc(c(Cl)c4)Oc4cc3cc(c4O[C@@H]3O[C@H](CO)[C@@H](O)[C@H](O)[C@H]3O[C@H]3C[C@](C)(N)[C@H](O)[C@H](C)O3)Oc3ccc(cc3Cl)[C@H]2O)c2ccc(O)c(c2)-c2c(O)cc(O)cc21)NC(=O)[C@H](CN)NC(=O)[C@H](CN)NC(=O)[C@H](CCCCNC(=O)c1ccc(Oc2ccccc2)cc1)NC(=O)c1ccc(Oc2ccccc2)cc1 [Compound 29, POB2K-Dap-Dap-K(Vancomycin)-NHMe] | 0.75 (≈ 0.328 µM) | 0.0045 (≈ 0.00197 µM) | 0.0085 (≈ 0.00372 µM) | 0.0925 (≈ 0.0405 µM) |  |  |  | 
6 | POB2K-Dap-K-K(Vancomycin)-NHMe [Compound 28] |  |  |  |  | 0.75 | 0.015 µg/mL and 0.011 µg/mL | 0.125 µg/mL and 0.155 µg/mL | <0.003 µg/mL and 0.0045 µg/mL
7 | CCCCCCCCCCCCCC(=O)NCC(=O)N[C@@H](CO)C(=O)N[C@@H](CCCCN)C(=O)N[C@@H](CCCCN)C(=O)N[C@@H](CCCCN)C(=O)N[C@@H](CS)C(=O)O [Compound 14a, Myristoyl-GSKKKC-OH] (Myristoyl-GSKKKC-OH) | >8 | >8 |  |  |  |  |  | 
8 | CCCCCCCCCCCCC(=O)N[C@@H](CCCCN)C(=O)N[C@@H](CCCCN)C(=O)N[C@@H](CCCCN)C(=O)N[C@@H](CCCCNC(=O)[C@H]1NC(=O)[C@H]2NC(=O)[C@H](NC(=O)[C@@H]3NC(=O)[C@H](CC(N)=O)NC(=O)[C@H](NC(=O)[C@@H](CC(C)C)NC)[C@H](O)c4ccc(c(Cl)c4)Oc4cc3cc(c4O[C@@H]3O[C@H](CO)[C@@H](O)[C@H](O)[C@H]3O[C@H]3C[C@](C)(N)[C@H](O)[C@H](C)O3)Oc3ccc(cc3Cl)[C@H]2O)c2ccc(O)c(c2)-c2c(O)cc(O)cc21)C(=O)O [Compound 38, nC12CO-KKK-K-(Vancomycin)-OH] | 0.1875 (≈ 0.0869 µM) | <0.003 | <0.003 | 0.03 (≈ 0.0139 µM) |  |  |  | 
9 | CNC(=O)[C@H](CCCNC(=O)[C@H]1NC(=O)[C@H]2NC(=O)[C@H](NC(=O)[C@@H]3NC(=O)[C@H](CC(N)=O)NC(=O)[C@H](NC(=O)[C@@H](CC(C)C)NC)[C@H](O)c4ccc(c(Cl)c4)Oc4cc3cc(c4O[C@@H]3O[C@H](CO)[C@@H](O)[C@H](O)[C@H]3O[C@H]3C[C@](C)(N)[C@H](O)[C@H](C)O3)Oc3ccc(cc3Cl)[C@H]2O)c2ccc(O)c(c2)-c2c(O)cc(O)cc21)NC(=O)[C@H](CCCCN)NC(=O)[C@H](CCCCN)NC(=O)[C@H](CCCCNC(=O)c1ccc(Oc2ccccc2)cc1)NC(=O)c1ccc(Oc2ccccc2)cc1 [Compound 35, POB2K-KK-Orn(Vancomycin)-NHMe] | 1.25 (≈ 0.531 µM) | <0.003 | 0.005 (≈ 0.00212 µM) | 0.25 (≈ 0.106 µM) |  |  |  | 
10 | CNC(=O)[C@H](CCCCNC(=O)[C@H]1NC(=O)[C@H]2NC(=O)[C@H](NC(=O)[C@@H]3NC(=O)[C@H](CC(N)=O)NC(=O)[C@H](NC(=O)[C@@H](CC(C)C)NC)[C@H](O)c4ccc(c(Cl)c4)Oc4cc3cc(c4O[C@@H]3O[C@H](CO)[C@@H](O)[C@H](O)[C@H]3O[C@H]3C[C@](C)(N)[C@H](O)[C@H](C)O3)Oc3ccc(cc3Cl)[C@H]2O)c2ccc(O)c(c2)-c2c(O)cc(O)cc21)NC(=O)[C@H](CCN)NC(=O)[C@H](CCCCN)NC(=O)[C@H](CCCCNC(=O)c1ccc(Oc2ccccc2)cc1)NC(=O)c1ccc(Oc2ccccc2)cc1 [Compound 30, POB2K-K-Dab-K(Vancomycin)-NHMe] | 0.75 (≈ 0.321 µM) | <0.003 | <0.003 | 0.0925 (≈ 0.0395 µM) |  |  |  | 
11 | CNC(=O)[C@H](CCCCNC(=O)[C@H]1NC(=O)[C@H]2NC(=O)[C@H](NC(=O)[C@@H]3NC(=O)[C@H](CC(N)=O)NC(=O)[C@H](NC(=O)[C@@H](CC(C)C)NC)[C@H](O)c4ccc(c(Cl)c4)Oc4cc3cc(c4O[C@@H]3O[C@H](CO)[C@@H](O)[C@H](O)[C@H]3O[C@H]3C[C@](C)(N)[C@H](O)[C@H](C)O3)Oc3ccc(cc3Cl)[C@H]2O)c2ccc(O)c(c2)-c2c(O)cc(O)cc21)NC(=O)[C@H](CCCCN)NC(=O)[C@H](CCN)NC(=O)[C@H](CCCCNC(=O)c1ccc(Oc2ccccc2)cc1)NC(=O)c1ccc(Oc2ccccc2)cc1 [Compound 31, POB2K-Dab-K-K(Vancomycin)-NHMe] | 0.375 (≈ 0.16 µM) | <0.003 | <0.003 | 0.0925 (≈ 0.0395 µM) |  |  |  | 
12 | CNC(=O)[C@H](CCCCNC(=O)[C@H]1NC(=O)[C@H]2NC(=O)[C@H](NC(=O)[C@@H]3NC(=O)[C@H](CC(N)=O)NC(=O)[C@H](NC(=O)[C@@H](CC(C)C)NC)[C@H](O)c4ccc(c(Cl)c4)Oc4cc3cc(c4O[C@@H]3O[C@H](CO)[C@@H](O)[C@H](O)[C@H]3O[C@H]3C[C@](C)(N)[C@H](O)[C@H](C)O3)Oc3ccc(cc3Cl)[C@H]2O)c2ccc(O)c(c2)-c2c(O)cc(O)cc21)NC(=O)[C@H](CCCN)NC(=O)[C@H](CCCN)NC(=O)[C@H](CCCCNC(=O)c1ccc(Oc2ccccc2)cc1)NC(=O)c1ccc(Oc2ccccc2)cc1 [Compound 34, POB2K-Orn-Orn-K(Vancomycin)-NHMe] | 0.5 (≈ 0.214 µM) | <0.003 | <0.003 | 0.0185 (≈ 0.00791 µM) |  |  |  | 
13 | CNC(=O)[C@H](CCCCNC(=O)[C@H]1NC(=O)[C@H]2NC(=O)[C@H](NC(=O)[C@@H]3NC(=O)[C@H](CC(N)=O)NC(=O)[C@H](NC(=O)[C@@H](CC(C)C)NC)[C@H](O)c4ccc(c(Cl)c4)Oc4cc3cc(c4O[C@@H]3O[C@H](CO)[C@@H](O)[C@H](O)[C@H]3O[C@H]3C[C@](C)(N)[C@H](O)[C@H](C)O3)Oc3ccc(cc3Cl)[C@H]2O)c2ccc(O)c(c2)-c2c(O)cc(O)cc21)NC(=O)[C@H](CCCN)NC(=O)[C@H](CCCCN)NC(=O)[C@H](CCCCNC(=O)c1ccc(Oc2ccccc2)cc1)NC(=O)c1ccc(Oc2ccccc2)cc1 [Compound 32, POB2K-K-Orn-K(Vancomycin)-NHMe] | 1 (≈ 0.425 µM) | <0.003 | <0.003 | 0.0375 (≈ 0.0159 µM) |  |  |  | 
